Test results: publication PMC4933878 (2016)

Tested on: c-myc pu22 DNA (c-myc G-quadruplex DNA) (DNA, G4) TGGGGAGGGTGGGGAGGGTGGGGAAGG
Assay: UV-vis absorption titration (hypochromism)
Settings: 100 mM KCl; Tris-HCl, pH 7.2; 20 μM compound; hypochromism MLCT 14.6%, IL 38.9%; constant not given

C(#Cc1ccc(-c2nc3c4cccnc4c4ncccc4c3[nH]2)cc1)c1ccccc1.[Ru+2].c1ccc(-c2ccccn2)nc1.c1ccc(-c2ccccn2)nc1
binding: yes
